Like-named read-outs stand apart in the source and are kept apart here.
Columns and labels:
[1] = Oxygen-sparing action during physical work, general findings in the description; assay type: in vivo; settings: result in words; for Oxygen demand after administration: even occasionally increased
test subject [2] = test: Bicycle ergometer test at 100 W: antagonism between inactive (1st dosage) and active (2nd dosage) substances (Example 1b); assay type: in vivo, human; settings: for Average heart rate after 1st dosage: 10-minute test at 100 W; for Change in the oxygen consumption after 2nd dosage: relative to after 1st dosage; for Average heart rate before: 10-minute control test at 100 W before the 1st dosage
Procedure: (§1) 13 to Mar. 6, 1999, with a subject in good physical condition under standard conditions. The subject was required each morning in the fasting state to perform successively (without interruption) at mechanical power output of 100 W, 125 W and 150 W, each lasting 10 minutes (total test duration 30 minutes each time). […] The heat production induced by mechanical exertion was calculated from the changes in the heart rate. An alternative possibility is also to determine it on the basis of the increase in humidity caused by the perspiration (the tests are carried out in a closed room) or reduction in weight (1 g of water=2.26 kJ). […] The values indicated in table la for the “average heart rate” are in each case averages over the 30-minute duration of the test; relative values for the oxygen consumption were established on the basis of the heart rates in a known manner, and the relative values indicated in Table 1a are based on the oxygen consumption on the first day (=100%); the values listed in the column “heat production” in Table 1a give the percentage deviation of the heat production, established on the basis of the perspiration, from the average from all the tests.
(§2) It is known that the oxygen uptake can be determined by measuring the heart rate as a function of the mechanical exertion. This ergometric method is based on establishing the oxygen transport volume through the action of the heart. Since the stroke volume is essentially constant irrespective of the intensity of the mechanical work, and the increased oxygen demand caused by the increase in work results in an increase in the heart rate, the quantity of the transported oxygen can be established by determining the additional heartbeats caused by the work. A 3-stage ergometer as recommended by the World Health Organization (WHO) is used in physiology research institutes and fitness clubs around the world.

test subject [3] = assay type: in vivo, human; settings: Homo sapiens, 10 min
test subject [4] = test: Bicycle ergometer test at 100 W: active ingredient, sucrose, further active ingredient, amino acid/vitamin product (Example 1c); assay type: in vivo, human; settings: for Average heart rate after 4th dos.: 4th dosage 100 mg of Na glutamate, 0.3 mg of folic acid, 5 μg of cyanocobalamin in 10 mg of gelatin; for Average heart rate after 2nd dos.: then 2nd dosage 2.5 g of sucrose
Procedure: as §1, §2

test subject [5] = test: as above; assay type: in vivo, human; settings: for Change in oxygen consumption after 2nd dos.: 2nd dosage 2.5 g of sucrose; for Change in oxygen consumption after 2nd dos. / Change in oxygen consumption after 4th dos. / Change in oxygen consumption after 3rd dos.: relative to preceding dosage; for Change in oxygen consumption after 4th dos.: 4th dosage Na glutamate/folic acid/cyanocobalamin/gelatin; for Average heart rate after 1st dos.: 10-minute test at 100 W
[6] = read-out: Change in the oxygen demand
[7] = read-out: Heat production (deviation from the average of all the tests)
[8] = 1st dosage 10 mg in 20 ml of water
[9] = Homo sapiens, 1st dosage 10 mg, 100 W, read-out: Change in the oxygen consumption after 1st dosage
[10] = 2nd dosage 1 mg, after 50 mg of opipramol, 100 W
[11] = 2nd dosage 1 mg, after 1st dosage of 50 mg of opipramol, 100 W
[12] = 3rd dosage further 1 mg of active ingredient after sucrose
[13] = after 1 mg of active ingredient
[14] = 1st dosage 1 mg as dilute aqueous solution
[15] = 3rd dosage further 1 mg of active ingredient

Structure (SMILES): CN1CCC[C@@H]1CCO[C@](C)(c1ccccc1)c1ccc(Cl)cc1 [clemastine]
- Suitability for reducing the oxygen consumption during physical work [1]: suitable

Structure (SMILES): OCCN1CCN(CCCN2c3ccccc3C=Cc3ccccc32)CC1 [opipramol]
- Oxygen demand after administration [1]: not reduced

Structure (SMILES): O=C1Nc2ccc(Cl)cc2C(c2ccccc2Cl)=NC1O (stereo not shown) [lorazepam]
- Average heart rate after 1st dosage (test subject [2]; 1st dosage 1 mg in 20 ml of water): 121.5 per minute
- change in vivo at 1 mg (test subject [2]; Homo sapiens, 1st dosage 1 mg, 100 W, read-out: Change in the oxygen consumption after 1st dosage): 34%
- Oxygen demand after administration [1]: not reduced

Structure (SMILES): O=C1Nc2ccc(Cl)cc2C(c2ccccc2)=NC1O (stereo not shown) [oxazepam]
- change in vivo at 1 mg (test subject [3]; [6]): 0%
- change in vivo at 1 mg (test subject [3]; [7]): 7%
- change in vivo at 7 mg (test subject [2]; Homo sapiens, 1st dosage 7 mg, 100 W, read-out: Change in the oxygen consumption after 1st dosage): 33%

Structure (SMILES): O=C1CN=C(c2ccccc2)c2cc([N+](=O)[O-])ccc2N1 [nitrazepam]
- change in vivo at 1 mg (test subject [3]; [6]): 0%
- change in vivo at 1 mg (test subject [3]; [7]): 7%
- Average heart rate after 1st dosage (test subject [2]; [8]): 131.4 per minute
- change in vivo at 10 mg (test subject [2]; [9]): 21%
- Oxygen demand after administration [1]: not reduced

Structure (SMILES): CN(C)CCC=C1c2ccccc2CCc2ccccc21 [amitriptyline]
- Average heart rate after 1st dosage (test subject [2]; [8]): 119.3 per minute
- change in vivo at 10 mg (test subject [2]; [9]): 71%
- Oxygen demand after administration [1]: not reduced

Structure (SMILES): CN1C(=O)CC(=O)N(c2ccccc2)c2cc(Cl)ccc21 [clobazam]
- change in vivo at 1 mg (test subject [3]; [6]): -51%
- change in vivo at 1 mg (test subject [3]; [7]): -49%

Structure (SMILES): COc1ccc2c3c1O[C@H]1[C@@H](O)CC[C@H]4[C@@H](C2)N(C)CC[C@@]341 [dihydrocodeine]
- Suitability for reducing the oxygen consumption during physical work [1]: suitable

Structure (SMILES): CN(C)CCN1C(=O)c2ccccc2N(C)c2ccccc21 [dibenzepin]
- Change in the oxygen consumption after 2nd dosage (test subject [2]; [10]): −59%
- Average heart rate after 2nd dosage (test subject [2]; [11]): 88.3 per minute
- Average heart rate after 4th dos. (test subject [4]; 1 mg series): 86.4 per minute
- Average heart rate after 3rd dos. (test subject [4]; [12]): 115 per minute
- Average heart rate after 2nd dos. (test subject [4]; [13]): 111.5 per minute
- Suitability for reducing the oxygen consumption during physical work [1]: suitable
- Change in oxygen consumption after 2nd dos. (test subject [5]; 1 mg series): +69%
- Change in oxygen consumption after 4th dos. (test subject [5]; 1 mg series): −57%
- Average heart rate after 1st dos. (test subject [5]; [14]): 77.2 per minute
- Change in oxygen consumption after 3rd dos. (test subject [5]; [15]): 0%

Structure (SMILES): COc1ccc2c(c1OC)C(=O)O[C@@H]2[C@H]1c2c(cc3c(c2OC)OCO3)CCN1C [noscapine]
- Suitability for reducing the oxygen consumption during physical work [1]: suitable

Structure (SMILES): CN1CCN(C2=Nc3ccccc3Sc3ccc(Cl)cc32)CC1 [clothiapine]
- Change in the oxygen consumption after 2nd dosage (test subject [2]; 2nd dosage 1 mg, after 25 mg of clomipramine, 100 W): −70%
- Change in the oxygen consumption after 2nd dosage (test subject [2]; [10]): −65%
- Average heart rate after 2nd dosage (test subject [2]; 2nd dosage 1 mg, after 1st dosage of 25 mg of clomipramine, 100 W): 100.0 per minute
- Average heart rate after 2nd dosage (test subject [2]; [11]): 88.9 per minute
- Average heart rate after 4th dos. (test subject [4]; 1 mg series): 82.2 per minute
- Average heart rate after 3rd dos. (test subject [4]; [12]): 113.9 per minute
- Average heart rate after 2nd dos. (test subject [4]; [13]): 112.4 per minute
- Suitability for reducing the oxygen consumption during physical work [1]: suitable
- Change in oxygen consumption after 2nd dos. (test subject [5]; 1 mg series): +78%
- Change in oxygen consumption after 4th dos. (test subject [5]; 1 mg series): −63%
- Average heart rate after 1st dos. (test subject [5]; [14]): 73.2 per minute
- Change in oxygen consumption after 3rd dos. (test subject [5]; [15]): +3%

Structure (SMILES): CN1CC[C@]23c4c5ccc(O)c4O[C@H]2[C@@H](O)C=C[C@H]3[C@H]1C5 [morphine]
- Suitability for reducing the oxygen consumption during physical work [1]: suitable

Structure (SMILES): CN1CCN(C(=O)OC2c3nccnc3C(=O)N2c2ccc(Cl)cn2)CC1 (stereo not shown) [zopiclone]
- change in vivo at 1 mg (test subject [3]; [7]): -44%
- Suitability for reducing the oxygen consumption during physical work [1]: suitable

Structure (SMILES): CN(C)CCOC(C)(c1ccccc1)c1ccccn1 (stereo not shown) [doxylamine]
- Oxygen demand after administration [1]: not reduced

Structure (SMILES): CSc1ccc2c(c1)N(CCC1CCCCN1C)c1ccccc1S2 (stereo not shown) [thioridazine]
- Change in the oxygen consumption after 2nd dosage (test subject [2]; 2nd dosage 1 mg, after 10 mg of imipramine, 100 W): −56%
- Average heart rate after 2nd dosage (test subject [2]; 2nd dosage 1 mg, after 1st dosage of 10 mg of imipramine, 100 W): 81.5 per minute
- Average heart rate after 4th dos. (test subject [4]; 1 mg series): 86.5 per minute
- Average heart rate after 3rd dos. (test subject [4]; [12]): 111.2 per minute
- Average heart rate after 2nd dos. (test subject [4]; [13]): 111.0 per minute
- Suitability for reducing the oxygen consumption during physical work [1]: suitable
- Change in oxygen consumption after 2nd dos. (test subject [5]; 1 mg series): +69%
- Change in oxygen consumption after 4th dos. (test subject [5]; 1 mg series): −49%
- Average heart rate after 1st dos. (test subject [5]; [14]): 76.3 per minute
- Change in oxygen consumption after 3rd dos. (test subject [5]; [15]): 0%

Structure (SMILES): O=C1CN=C(c2ccccn2)c2cc(Br)ccc2N1 [bromazepam]
- change in vivo at 1 mg (test subject [3]; [6]): 0%
- change in vivo at 1 mg (test subject [3]; [7]): 6%
- Average heart rate after 1st dosage (test subject [2]; 1st dosage 3 mg in 20 ml of water): 129.3 per minute
- change in vivo at 3 mg (test subject [2]; Homo sapiens, 1st dosage 3 mg, 100 W, read-out: Change in the oxygen consumption after 1st dosage): 23%
- Oxygen demand after administration [1]: not reduced

Structure (SMILES): CN1CCC(=C2c3ccccc3C=Cc3ccccc32)CC1 [cyproheptadine]
- Change in the oxygen consumption after 2nd dosage (test subject [2]; 2nd dosage 0.2 mg, after 5 mg of chlordiazepoxide, 100 W): −76%
- Change in the oxygen consumption after 2nd dosage (test subject [2]; 2nd dosage 0.2 mg, after 10 mg of amitriptyline, 100 W): −63%
- Average heart rate after 2nd dosage (test subject [2]; 2nd dosage 0.2 mg, after 1st dosage of 5 mg of chlordiazepoxide, 100 W): 88.5 per minute
- Average heart rate after 2nd dosage (test subject [2]; 2nd dosage 0.2 mg, after 1st dosage of 10 mg of amitriptyline, 100 W): 87.6 per minute
- Average heart rate after 4th dos. (test subject [4]; 0.2 mg series): 83.9 per minute
- Average heart rate after 3rd dos. (test subject [4]; 3rd dosage further 0.2 mg of active ingredient after sucrose): 106.4 per minute
- Average heart rate after 2nd dos. (test subject [4]; after 0.2 mg of active ingredient): 109.1 per minute
- Change in oxygen consumption after 2nd dos. (test subject [5]; 0.2 mg series): +69%
- Change in oxygen consumption after 4th dos. (test subject [5]; 0.2 mg series): −45%
- Average heart rate after 1st dos. (test subject [5]; 1st dosage 0.2 mg as dilute aqueous solution): 74.7 per minute
- Change in oxygen consumption after 3rd dos. (test subject [5]; 3rd dosage further 0.2 mg of active ingredient): −5%

Structure (SMILES): CN(C)CC/C=C1/c2ccccc2Sc2ccc(Cl)cc21 [chlorprothixen, chlorprothixene]
- Average heart rate after 1st dosage (test subject [2]; [8]): 124.6 per minute
- Change in the oxygen consumption after 1st dosage (test subject [2]; 1st dosage 10 mg, 100 W): +46%
- Average heart rate before (test subject [2]): 101.7 per minute
- Oxygen demand after administration [1]: not reduced

Structure (SMILES): CN(C)CCCN1c2ccccc2CCc2ccc(Cl)cc21 [clomipramine]
- Average heart rate after 1st dosage (test subject [2]; 1st dosage 25 mg in 20 ml of water): 134.8 per minute
- change in vivo at 25 mg (test subject [2]; Homo sapiens, 1st dosage 25 mg, 100 W, read-out: Change in the oxygen consumption after 1st dosage): 42%
- Oxygen demand after administration [1]: not reduced

Structure (SMILES): CNC1=Nc2ccc(Cl)cc2C(c2ccccc2)=[N+]([O-])C1 [chlordiazepoxide]
- change in vivo at 1 mg (test subject [3]; [6]): 0%
- change in vivo at 1 mg (test subject [3]; [7]): 14%
- Average heart rate after 1st dosage (test subject [2]; 1st dosage 5 mg in 20 ml of water): 126.4 per minute
- change in vivo at 5 mg (test subject [2]; Homo sapiens, 1st dosage 5 mg, 100 W, read-out: Change in the oxygen consumption after 1st dosage): 29%

Structure (SMILES): Cl.Cl.OCCN1CCN(CCC=C2c3ccccc3Sc3ccc(C(F)(F)F)cc32)CC1 (mixture of isomers) [flupentixol]
- Average heart rate after 1st dosage (test subject [2]; 1st dosage 0.5 mg in 20 ml of water): 118.4 per minute
- Change in the oxygen consumption after 1st dosage (test subject [2]; 1st dosage 0.5 mg, 100 W): +32%
- Average heart rate before (test subject [2]): 102.6 per minute
- Oxygen demand after administration [1]: not reduced

Structure (SMILES): CN1C(=O)CN=C(c2ccccc2F)c2cc([N+](=O)[O-])ccc21 [flunitrazepam]
- change in vivo at 1 mg (test subject [3]; [6]): -39%
- change in vivo at 1 mg (test subject [3]; [7]): -40%
- Suitability for reducing the oxygen consumption during physical work [1]: suitable

Structure (SMILES): CCOC(=O)n1ccn(C)c1=S [carbimazole]
- Suitability for reducing the oxygen consumption during physical work [1]: suitable

From patent US6703371B1, “Preparations for reducing oxygen consumption during physical efforts” (priority 1999, dated 2004)
